Test results reported in US12281149B2, “Modulators of G-protein coupled receptors” (priority 2021, dated 2025).
Read-outs that look alike come from different tables or passages of the source. *1 amine or outer side, *2 acyl side, *3 side chain or, on linkers, in order; H or OH if unused. Where a SMILES comes first, the peptide text is derived from it. Side-chain parts run from the residue outwards. [ ]: non-standard residue; d: D form. The star is where a group is joined. NH(4-Cl-3-CF3-phenyl) = FC(F)(F)c1cc(N*)ccc1Cl; C20 diacid = O=C(O)CCCCCCCCCCCCCCCCCCC(=O)*; αMePhe(2-F) = C[C@](N)(Cc1ccccc1F)C(=O)O; NH(3,5-Cl2-phenyl) = Clc1cc(Cl)cc(N*)c1; γGlu = O=C(O)[C@H](CCC(=O)[*:2])N[*:1]; X60 = O=C(C1(c2cccnc2)CCCC1)*; X16 = FC(F)(F)c1cccc(N*)c1; AEEA = NCCOCCOCC(=O)O; Aib = CC(C)(N)C(=O)O; CO = O=C([*:1])[*:2]; X63 = Fc1ccc(N*)cc1F; GABA = NCCCC(=O)O; βAla = NCCC(=O)O

Experiments:
Format in all cases: cell-based
GLP-1 receptor [1] = biological target: T1, GLP-1 receptor (Homo sapiens, UniProt P43220); assay: PathHunter β-arrestin assay, GLP-1 receptor; set-up: host or cells: PathHunter CHO-K1 GLP1R β-Arrestin Cell Line
GIP receptor [2] = biological target: T2, GIP receptor (Homo sapiens, UniProt P48546); assay: HitHunter cAMP assay, GIP receptor; details: for Emax: read-out: Emax GIP-1R
T2 sequence (P48546 22-466): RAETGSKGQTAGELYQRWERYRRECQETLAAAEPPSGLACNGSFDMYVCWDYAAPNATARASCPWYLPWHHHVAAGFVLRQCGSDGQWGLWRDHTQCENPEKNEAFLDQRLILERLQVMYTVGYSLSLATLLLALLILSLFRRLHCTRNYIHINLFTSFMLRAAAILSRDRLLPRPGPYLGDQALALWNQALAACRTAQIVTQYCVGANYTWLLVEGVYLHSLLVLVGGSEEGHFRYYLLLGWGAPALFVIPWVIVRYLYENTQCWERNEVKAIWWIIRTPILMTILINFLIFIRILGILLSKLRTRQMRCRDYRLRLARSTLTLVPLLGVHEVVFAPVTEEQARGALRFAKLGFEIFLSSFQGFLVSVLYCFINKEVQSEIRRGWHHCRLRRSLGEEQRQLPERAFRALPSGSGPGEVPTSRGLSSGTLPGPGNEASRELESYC

GLP-1 receptor [3] = biological target: T1, GLP-1 receptor; assay: HitHunter cAMP assay, GLP-1 receptor; details: for Emax: read-out: Emax GLP-1R
GIP receptor [4] = biological target: T2, GIP receptor; assay: PathHunter β-arrestin assay, GIP receptor; set-up: host or cells: PathHunter CHO-K1 GIPR β-Arrestin Cell Line
[5] = β-arrestin-2 recruitment, PathHunter CHO-K1 GLP1R β-Arrestin Cell Line, 90 min at 37° C., normalized to GLP-1, read-out: GLP-1R β Arrestin EC50
[6] = CHO cells stably expressing GIP receptor, cAMP accumulation, 30 min, read-out: EC50 GIP-1R
[7] = CHO cells, cAMP, normalized to maximum signal from GIP (high) and DMSO (low)
[8] = CHO cells stably expressing human GLP-1 receptor, cAMP accumulation, 30 min, read-out: EC50 GLP-1R
[9] = CHO cells, cAMP, normalized to maximum signal from GLP-1 (high) and DMSO (low)
[10] = β-arrestin-2 recruitment, PathHunter CHO-K1 GIPR β-Arrestin Cell Line, 90 min at 37° C., normalized to GIP, read-out: GIPR β Arrestin EC50

T1 sequence (P43220 24-463): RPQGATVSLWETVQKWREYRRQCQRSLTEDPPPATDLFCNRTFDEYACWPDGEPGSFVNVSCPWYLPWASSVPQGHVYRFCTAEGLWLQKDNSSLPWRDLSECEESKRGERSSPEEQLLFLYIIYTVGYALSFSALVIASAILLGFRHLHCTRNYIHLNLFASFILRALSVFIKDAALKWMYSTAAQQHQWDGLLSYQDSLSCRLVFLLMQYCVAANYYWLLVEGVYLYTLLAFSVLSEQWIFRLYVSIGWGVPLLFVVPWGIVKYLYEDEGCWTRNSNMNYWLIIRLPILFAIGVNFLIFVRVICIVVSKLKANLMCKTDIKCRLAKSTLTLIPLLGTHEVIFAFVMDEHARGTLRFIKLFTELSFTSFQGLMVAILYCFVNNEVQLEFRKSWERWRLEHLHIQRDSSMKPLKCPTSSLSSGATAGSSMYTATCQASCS

SMILES	EC50 (GLP-1 receptor [1]; [5]) [nM]	EC50 (GIP receptor [2]; [6]) [nM]	Emax (GIP receptor [2]; [7]) [%]	EC50 (GLP-1 receptor [3]; [8]) [nM]	Emax (GLP-1 receptor [3]; [9]) [%]	EC50 (GIP receptor [4]; [10]) [nM]	EC50 (GLP-1 receptor [1]) [nM]	EC50 (GIP receptor [2]) [nM]	Emax (GIP receptor [2]; CHO) [%]	EC50 (GLP-1 receptor [3]) [nM]	Emax (GLP-1 receptor [3]; CHO) [%]	EC50 (GIP receptor [4]) [nM]
CC[C@H](C)[C@H](NC(=O)[C@H](CC(C)C)NC(=O)[C@H](Cc1c[nH]c2ccccc12)NC(=O)[C@H](CCC(N)=O)NC(=O)[C@@H](NC(=O)[C@H](Cc1ccccc1)NC(=O)[C@H](C)NC(=O)[C@H](CCCCNC(=O)COCCOCCNC(=O)COCCOCCNC(=O)CC[C@H](NC(=O)CCCCCCCCCCCCCCCCCCC(=O)O)C(=O)O)NC(=O)[C@H](CCC(N)=O)NC(=O)[C@H](C)NC(=O)[C@@H](NC(=O)[C@H](CCCCN)NC(=O)[C@H](CC(=O)O)NC(=O)[C@H](CC(C)C)NC(=O)C(C)(C)NC(=O)[C@@H](NC(=O)[C@H](CO)NC(=O)[C@H](Cc1ccc(O)cc1)NC(=O)[C@H](CC(=O)O)NC(=O)[C@H](CO)NC(=O)[C@@H](NC(=O)[C@](C)(Cc1ccccc1F)NC(=O)[C@@H](NC(=O)CNC(=O)[C@H](CCC(=O)O)NC(=O)CCNC(=O)C1(c2cccnc2)CCCC1)[C@@H](C)O)[C@@H](C)O)[C@@H](C)CC)[C@@H](C)CC)C(C)C)C(=O)N[C@@H](C)C(=O)NCC(=O)NCC(=O)N1CCC[C@H]1C(=O)N[C@@H](CO)C(=O)N[C@@H](CO)C(=O)NCC(=O)N[C@@H](C)C(=O)N1CCC[C@H]1C(=O)N1CCC[C@H]1C(=O)N1CCC[C@H]1C(=O)N[C@@H](CO)C(N)=O [Compound 246] ({X60-βAla}-EGT[αMePhe(2-F)]TSDYSI[Aib]LDKIAQK([AEEA-AEEA-γGlu-C20 diacid])AFVQWLIAGGPSSGAPPPS-NH2)	< 1000	0.1 to 1	100	0.1 to 1	130	< 1000	–	–	–	–	–	–
CC[C@H](C)[C@H](NC(=O)[C@H](CC(C)C)NC(=O)[C@H](Cc1c[nH]c2ccccc12)NC(=O)[C@H](CCC(N)=O)NC(=O)[C@@H](NC(=O)[C@H](Cc1ccccc1)NC(=O)[C@H](C)NC(=O)[C@H](CCCCNC(=O)COCCOCCNC(=O)COCCOCCNC(=O)CC[C@H](NC(=O)CCCCCCCCCCCCCCCCCCC(=O)O)C(=O)O)NC(=O)[C@H](CCC(N)=O)NC(=O)[C@H](C)NC(=O)[C@@H](NC(=O)[C@H](CCCCN)NC(=O)[C@H](CC(=O)O)NC(=O)[C@H](CC(C)C)NC(=O)C(C)(C)NC(=O)[C@@H](NC(=O)[C@H](CO)NC(=O)[C@H](Cc1ccc(O)cc1)NC(=O)[C@H](CC(=O)O)NC(=O)[C@H](CO)NC(=O)[C@@H](NC(=O)[C@H](Cc1ccccc1)NC(=O)[C@@H](NC(=O)CNC(=O)[C@H](CCC(=O)O)NC(=O)CCCNC(=O)CNC(=O)Nc1cccc(C(F)(F)F)c1)[C@@H](C)O)[C@@H](C)O)[C@@H](C)CC)[C@@H](C)CC)C(C)C)C(=O)N[C@@H](C)C(=O)NCC(=O)NCC(=O)N1CCC[C@H]1C(=O)N[C@@H](CO)C(=O)N[C@@H](CO)C(=O)NCC(=O)N[C@@H](C)C(=O)N1CCC[C@H]1C(=O)N1CCC[C@H]1C(=O)N1CCC[C@H]1C(=O)N[C@@H](CO)C(N)=O [Compound 263] ({X16-CO}-G[GABA]EGTFTSDYSI[Aib]LDKIAQK([AEEA-AEEA-γGlu-C20 diacid])AFVQWLIAGGPSSGAPPPS-NH2)	–	–	–	–	–	–	> 1000	1 to 10	104	1 to 10	98	> 1000
CC[C@H](C)[C@H](NC(=O)[C@H](CC(C)C)NC(=O)[C@H](Cc1c[nH]c2ccccc12)NC(=O)[C@H](CCC(N)=O)NC(=O)[C@@H](NC(=O)[C@H](Cc1ccccc1)NC(=O)[C@H](C)NC(=O)[C@H](CCCCNC(=O)COCCOCCNC(=O)COCCOCCNC(=O)CC[C@H](NC(=O)CCCCCCCCCCCCCCCCCCC(=O)O)C(=O)O)NC(=O)[C@H](CCC(N)=O)NC(=O)[C@H](C)NC(=O)[C@@H](NC(=O)[C@H](CCCCN)NC(=O)[C@H](CC(=O)O)NC(=O)[C@H](CC(C)C)NC(=O)C(C)(C)NC(=O)[C@@H](NC(=O)[C@H](CO)NC(=O)[C@H](Cc1ccc(O)cc1)NC(=O)[C@H](CC(=O)O)NC(=O)[C@H](CO)NC(=O)[C@@H](NC(=O)[C@H](Cc1ccccc1)NC(=O)[C@@H](NC(=O)CNC(=O)[C@H](CCC(=O)O)NC(=O)CCCNC(=O)CNC(=O)Nc1ccc(F)c(F)c1)[C@@H](C)O)[C@@H](C)O)[C@@H](C)CC)[C@@H](C)CC)C(C)C)C(=O)N[C@@H](C)C(=O)NCC(=O)NCC(=O)N1CCC[C@H]1C(=O)N[C@@H](CO)C(=O)N[C@@H](CO)C(=O)NCC(=O)N[C@@H](C)C(=O)N1CCC[C@H]1C(=O)N1CCC[C@H]1C(=O)N1CCC[C@H]1C(=O)N[C@@H](CO)C(N)=O [Compound 264] ({X63-CO}-G[GABA]EGTFTSDYSI[Aib]LDKIAQK([AEEA-AEEA-γGlu-C20 diacid])AFVQWLIAGGPSSGAPPPS-NH2)	> 1000	1 to 10	106	1 to 10	97	< 1000	–	–	–	–	–	–
CC[C@H](C)[C@H](NC(=O)[C@H](CC(C)C)NC(=O)[C@H](Cc1c[nH]c2ccccc12)NC(=O)[C@H](CCC(N)=O)NC(=O)[C@@H](NC(=O)[C@H](Cc1ccccc1)NC(=O)[C@H](C)NC(=O)[C@H](CCCCNC(=O)COCCOCCNC(=O)COCCOCCNC(=O)CC[C@H](NC(=O)CCCCCCCCCCCCCCCCCCC(=O)O)C(=O)O)NC(=O)[C@H](CCC(N)=O)NC(=O)[C@H](C)NC(=O)[C@@H](NC(=O)[C@H](CCCCN)NC(=O)[C@H](CC(=O)O)NC(=O)[C@H](CC(C)C)NC(=O)C(C)(C)NC(=O)[C@@H](NC(=O)[C@H](CO)NC(=O)[C@H](Cc1ccc(O)cc1)NC(=O)[C@H](CC(=O)O)NC(=O)[C@H](CO)NC(=O)[C@@H](NC(=O)[C@H](Cc1ccccc1)NC(=O)[C@@H](NC(=O)CNC(=O)[C@H](CCC(=O)O)NC(=O)CCCNC(=O)CNC(=O)Nc1ccc(Cl)c(C(F)(F)F)c1)[C@@H](C)O)[C@@H](C)O)[C@@H](C)CC)[C@@H](C)CC)C(C)C)C(=O)N[C@@H](C)C(=O)NCC(=O)NCC(=O)N1CCC[C@H]1C(=O)N[C@@H](CO)C(=O)N[C@@H](CO)C(=O)NCC(=O)N[C@@H](C)C(=O)N1CCC[C@H]1C(=O)N1CCC[C@H]1C(=O)N1CCC[C@H]1C(=O)N[C@@H](CO)C(N)=O [Compound 265] ({NH(4-Cl-3-CF3-phenyl)-CO}-G[GABA]EGTFTSDYSI[Aib]LDKIAQK([AEEA-AEEA-γGlu-C20 diacid])AFVQWLIAGGPSSGAPPPS-NH2)	–	–	–	–	–	–	> 1000	1 to 10	107	10 to 100	94	< 1000
CC[C@H](C)[C@H](NC(=O)[C@H](CC(C)C)NC(=O)[C@H](Cc1c[nH]c2ccccc12)NC(=O)[C@H](CCC(N)=O)NC(=O)[C@@H](NC(=O)[C@H](Cc1ccccc1)NC(=O)[C@H](C)NC(=O)[C@H](CCCCNC(=O)COCCOCCNC(=O)COCCOCCNC(=O)CC[C@H](NC(=O)CCCCCCCCCCCCCCCCCCC(=O)O)C(=O)O)NC(=O)[C@H](CCC(N)=O)NC(=O)[C@H](C)NC(=O)[C@@H](NC(=O)[C@H](CCCCN)NC(=O)[C@H](CC(=O)O)NC(=O)[C@H](CC(C)C)NC(=O)C(C)(C)NC(=O)[C@@H](NC(=O)[C@H](CO)NC(=O)[C@H](Cc1ccc(O)cc1)NC(=O)[C@H](CC(=O)O)NC(=O)[C@H](CO)NC(=O)[C@@H](NC(=O)[C@H](Cc1ccccc1)NC(=O)[C@@H](NC(=O)CNC(=O)[C@H](CCC(=O)O)NC(=O)CCCNC(=O)CNC(=O)Nc1cc(Cl)cc(Cl)c1)[C@@H](C)O)[C@@H](C)O)[C@@H](C)CC)[C@@H](C)CC)C(C)C)C(=O)N[C@@H](C)C(=O)NCC(=O)NCC(=O)N1CCC[C@H]1C(=O)N[C@@H](CO)C(=O)N[C@@H](CO)C(=O)NCC(=O)N[C@@H](C)C(=O)N1CCC[C@H]1C(=O)N1CCC[C@H]1C(=O)N1CCC[C@H]1C(=O)N[C@@H](CO)C(N)=O [Compound 266] ({NH(3,5-Cl2-phenyl)-CO}-G[GABA]EGTFTSDYSI[Aib]LDKIAQK([AEEA-AEEA-γGlu-C20 diacid])AFVQWLIAGGPSSGAPPPS-NH2)	–	–	–	–	–	–	> 1000	1 to 10	105	1 to 10	105	< 1000
